In PubChem BioAssay AID248 (DTP/NCI, 2004):
Values joined by “and” are separate entries in the source; they are usually repeats but may differ in a detail not shown here. Equal entries are not always repeated. Inconclusive results and toxic doses are left out. No stated cut-off is given here; in the data, active means T/C of 150% or more; inactive means T/C below 125%.

Test system: L1210 leukemia ip in BDF1 mice, survival T/C
Test: NCI In Vivo Anticancer Drug Screen. Data for tumor model L1210 Leukemia (intraperitoneal) in B6D2F1 (BDF1) mice
Conditions: endpoint: mean survival time, higher = longer survival
Summary of the method: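 Mice bearing the transplanted tumor received compound or vehicle. Survival of the treated group was divided by that of the vehicle-treated control group to give the ratio.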

[1] = dose: 100.0 mg/kg/injection, schedule: Q01DX001 (ip), vehicle: carboxymethylcellulose (CMC)
[2] = dose: 400.0 mg/kg/injection, schedule: Q01DX001 (ip), vehicle: carboxymethylcellulose (CMC)

Measured: T/C

O=C(O)c1ccc(SSc2ccc(C(=O)O)cc2)cc1
inactive: dose: 25.0 mg/kg/injection, schedule: Q01DX009 (ip), vehicle: carboxymethylcellulose (CMC) 93 % of control and 100 % of control | dose: 25.0 mg/kg/injection, schedule: Q04DX002 (ip), vehicle: carboxymethylcellulose (CMC) 96 % of control and 103 % of control | dose: 50.0 mg/kg/injection, schedule: Q01DX009 (ip), vehicle: carboxymethylcellulose (CMC) 97 % of control and 98 % of control | dose: 50.0 mg/kg/injection, schedule: Q04DX002 (ip), vehicle: carboxymethylcellulose (CMC) 94 % of control and 90 % of control | dose: 50.0 mg/kg/injection, schedule: Q04DX003 (ip), vehicle: carboxymethylcellulose (CMC) 98 % of control and 89 % of control | [1] 93 % of control and 88 % of control | dose: 100.0 mg/kg/injection, schedule: Q01DX009 (ip), vehicle: carboxymethylcellulose (CMC) 92 % of control and 94 % of control and 100 % of control | dose: 100.0 mg/kg/injection, schedule: Q04DX003 (ip), vehicle: carboxymethylcellulose (CMC) 110 % of control and 89 % of control | dose: 200.0 mg/kg/injection, schedule: Q01DX001 (ip), vehicle: carboxymethylcellulose (CMC) 97 % of control and 100 % of control | dose: 200.0 mg/kg/injection, schedule: Q04DX002 (ip), vehicle: carboxymethylcellulose (CMC) 97 % of control | dose: 200.0 mg/kg/injection, schedule: Q04DX003 (ip), vehicle: carboxymethylcellulose (CMC) 88 % of control and 91 % of control | [2] 110 % of control

Cc1ccccc1N1CCN(c2c3c(nc4ccccc24)CCCCC3)CC1
inactive: dose: 100.0 mg/kg/injection, schedule: Q01DX001 (ip), vehicle: saline 93 % of control | dose: 400.0 mg/kg/injection, schedule: Q01DX001 (ip), vehicle: saline 93 % of control

Cc1nc(N)[nH]c(=O)c1CCCCCN
inactive: dose: 100.0 mg/kg/injection, schedule: Q04DX003 (ip), vehicle: saline 101 % of control | dose: 200.0 mg/kg/injection, schedule: Q04DX003 (ip), vehicle: saline 106 % of control | dose: 400.0 mg/kg/injection, schedule: Q04DX003 (ip), vehicle: saline 100 % of control

O=C(Cn1ccc(O)cc1=O)N1CCOCC1
inactive: dose: 100.0 mg/kg/injection, schedule: Q01DX009 (ip), vehicle: water 105 % of control | dose: 100.0 mg/kg/injection, schedule: Q04DX003 (ip), vehicle: water 101 % of control | dose: 200.0 mg/kg/injection, schedule: Q01DX009 (ip), vehicle: water 100 % of control | dose: 200.0 mg/kg/injection, schedule: Q04DX003 (ip), vehicle: water 106 % of control | dose: 400.0 mg/kg/injection, schedule: Q01DX009 (ip), vehicle: water 103 % of control | dose: 400.0 mg/kg/injection, schedule: Q04DX003 (ip), vehicle: water 94 % of control

CCCCCC/C=C\[N+](=O)[O-]
inactive: dose: 50.0 mg/kg/injection, schedule: Q01DX001 (ip), vehicle: saline with Tween-80 109 % of control

O=C(Nc1cccc(F)c1)Nc1ccc(C(=O)O)c(O)c1
inactive: dose: 100.0 mg/kg/injection, schedule: Q01DX009 (ip), vehicle: saline with Tween-80 91 % of control | dose: 200.0 mg/kg/injection, schedule: Q01DX009 (ip), vehicle: saline with Tween-80 95 % of control

O=C1NC(c2ccccc2)(c2ccccc2)C(=O)N1SC(Cl)(Cl)Cl
inactive: dose: 25.0 mg/kg/injection, schedule: Q04DX002 (ip), vehicle: Klucel (hydroxypropylcellulose) (HPC) 100 % of control | dose: 50.0 mg/kg/injection, schedule: Q04DX002 (ip), vehicle: Klucel (hydroxypropylcellulose) (HPC) 118 % of control

C/C(CC(C)C)=N/Nc1nc(C)cc(=O)[nH]1
inactive: dose: 100.0 mg/kg/injection, schedule: Q01DX009 (ip), vehicle: Klucel (hydroxypropylcellulose) (HPC) 92 % of control | dose: 100.0 mg/kg/injection, schedule: Q04DX003 (ip), vehicle: Klucel (hydroxypropylcellulose) (HPC) 105 % of control | dose: 200.0 mg/kg/injection, schedule: Q01DX009 (ip), vehicle: Klucel (hydroxypropylcellulose) (HPC) 97 % of control | dose: 200.0 mg/kg/injection, schedule: Q04DX003 (ip), vehicle: Klucel (hydroxypropylcellulose) (HPC) 100 % of control | dose: 400.0 mg/kg/injection, schedule: Q04DX003 (ip), vehicle: Klucel (hydroxypropylcellulose) (HPC) 92 % of control

CCOP(=O)(OCC)Oc1c(Cl)c(Cl)c(OC(=O)Nc2cc(Cl)ccc2Cl)c(Cl)c1Cl
inactive: dose: 25.0 mg/kg/injection, schedule: Q04DX002 (ip), vehicle: saline with Tween-80 90 % of control | dose: 50.0 mg/kg/injection, schedule: Q04DX002 (ip), vehicle: saline with Tween-80 97 % of control | dose: 100.0 mg/kg/injection, schedule: Q04DX002 (ip), vehicle: saline with Tween-80 94 % of control

COC(=O)[C@@]12OC[C@]34[C@H]([C@@H](O)[C@@H]1O)[C@@]1(C)CC(=O)C(O)=C(C)[C@@H]1C[C@H]3OC(=O)[C@H](OC(=O)/C=C(\C)C(C)C)[C@@H]24
inactive: dose: 0.03 mg/kg/injection, schedule: Q01DX009 (ip), vehicle: other 111 % of control | dose: 0.03 mg/kg/injection, schedule: Q01DX009 (ip), vehicle: saline with Tween-80 111 % of control | dose: 0.03 mg/kg/injection, schedule: Q03HX024 (ip), vehicle: other 107 % of control | dose: 0.03 mg/kg/injection, schedule: Q03HX024 (ip), vehicle: saline with Tween-80 108 % of control | dose: 0.06 mg/kg/injection, schedule: Q01DX009 (ip), vehicle: other 111 % of control and 116 % of control | dose: 0.06 mg/kg/injection, schedule: Q01DX009 (ip), vehicle: saline with Tween-80 110 % of control and 120 % of control | dose: 0.06 mg/kg/injection, schedule: Q03HX024 (ip), vehicle: other 107 % of control | dose: 0.06 mg/kg/injection, schedule: Q03HX024 (ip), vehicle: saline with Tween-80 114 % of control | dose: 0.12 mg/kg/injection, schedule: Q01DX009 (ip), vehicle: other 118 % of control and 123 % of control | dose: 0.12 mg/kg/injection, schedule: Q01DX009 (ip), vehicle: saline with Tween-80 117 % of control | dose: 0.12 mg/kg/injection, schedule: Q03HX024 (ip), vehicle: other 121 % of control | dose: 0.12 mg/kg/injection, schedule: Q03HX024 (ip), vehicle: saline with Tween-80 116 % of control | dose: 0.25 mg/kg/injection, schedule: Q01DX009 (ip), vehicle: saline with Tween-80 121 % of control | dose: 0.25 mg/kg/injection, schedule: Q03HX024 (ip), vehicle: other 121 % of control | dose: 0.5 mg/kg/injection, schedule: Q01DX009 (ip), vehicle: other 117 % of control | dose: 0.5 mg/kg/injection, schedule: Q01DX009 (ip), vehicle: saline with Tween-80 123 % of control | dose: 0.6 mg/kg/injection, schedule: Q01DX009 (ip), vehicle: saline + alcohol 96 % of control | dose: 0.8 mg/kg/injection, schedule: Q01DX009 (ip), vehicle: saline + alcohol 112 % of control | dose: 1.0 mg/kg/injection, schedule: Q01DX009 (ip), vehicle: other 122 % of control | dose: 1.3 mg/kg/injection, schedule: Q01DX009 (ip), vehicle: saline + alcohol 114 % of control | dose: 2.0 mg/kg/injection, schedule: Q01DX009 (ip), vehicle: saline + alcohol 123 % of control | dose: 8.0 micrograms/kg/injection, schedule: Q01DX009 (ip), vehicle: saline + alcohol 91 % of control | dose: 16.0 micrograms/kg/injection, schedule: Q01DX009 (ip), vehicle: saline + alcohol 100 % of control | dose: 31.0 micrograms/kg/injection, schedule: Q01DX009 (ip), vehicle: saline + alcohol 109 % of control | dose: 62.0 micrograms/kg/injection, schedule: Q01DX009 (ip), vehicle: saline + alcohol 114 % of control | dose: 250.0 micrograms/kg/injection, schedule: Q01DX009 (ip), vehicle: saline + alcohol 115 % of control | dose: 500.0 micrograms/kg/injection, schedule: Q01DX009 (ip), vehicle: saline + alcohol 114 % of control | dose: 1000.0 micrograms/kg/injection, schedule: Q01DX009 (ip), vehicle: saline + alcohol 120 % of control | dose: 2000.0 micrograms/kg/injection, schedule: Q01DX009 (ip), vehicle: saline + alcohol 117 % of control

CCC[N+]1(C)CCOCC1
inactive: dose: 75.0 mg/kg/injection, schedule: Q01DX001 (ip), vehicle: saline 94 % of control and 89 % of control

CC(=O)N/C(N)=N/N=C(C)/C=N\N
inactive: dose: 15.0 mg/kg/injection, schedule: Q01DX Z (ip), vehicle: carboxymethylcellulose (CMC) 96 % of control | dose: 30.0 mg/kg/injection, schedule: Q01DX Z (ip), vehicle: carboxymethylcellulose (CMC) 96 % of control | dose: 60.0 mg/kg/injection, schedule: Q01DX Z (ip), vehicle: carboxymethylcellulose (CMC) 101 % of control | dose: 120.0 mg/kg/injection, schedule: Q01DX Z (ip), vehicle: carboxymethylcellulose (CMC) 101 % of control | dose: 120.0 mg/kg/injection, schedule: Q01DX Z (oral), vehicle: carboxymethylcellulose (CMC) 111 % of control

O=C1C(N2CC2)=C(N2CC2)C(=O)C(N2CC2)=C1N1CC1
inactive: dose: 0.12 mg/kg/injection, schedule: Q01DX001 (ip), vehicle: saline 112 % of control

CN1C(=O)CC(/C=C\[N+](=O)[O-])c2ccccc21 (centres undefined)
inactive: [1] 94 % of control | [2] 104 % of control
